Data as given in patent publication US7060822B1, “2-pyrazolin-5-ones” (Abbott GmbH & Co. KG, priority 1999, dated 2006).

| melting point | Structure (SMILES) |
| --- | --- |
| 245 to 247 °C | Cn1cc(C=C2C(=O)NN=C2C2CC2)c2ccccc21 [Example 273, 3-Cyclopropyl-4-[(1-methylindol-3-yl)methylene]-2-pyrazolin-5-one] |
| 286 to 288 °C | Cc1cccc2c(C=C3C(=O)NN=C3C3CC3)c[nH]c12 [Example 274, 3-Cyclopropyl-4-[(7-methylindol-3-yl)methylene]-2-pyrazolin-5-one] |
| 230 to 232 °C | Cn1cc(C=C2C(=O)NN=C2c2cccnc2)c2ccccc21 [Example 275, 4-[(1-Methylindol-3-yl)methylene]-3-(3-pyridyl)-2-pyrazolin-5-one] |
| 250 °C (dec.) | CCOC(=O)C1=NNC(=O)C1=Cc1c[nH]c2ccccc12 [Example 283, 3-Ethoxycarbonyl-4-[(indol-3-yl)methylene]-2-pyrazolin-5-one] |
| 267 to 269 °C | COC(=O)CCC1=NNC(=O)C1=Cc1c[nH]c2ccccc12 [Example 284, 4-[(Indol-3-yl)methylene]-3-(2-methoxycarbonylethyl)-2-pyrazolin-5-one] |
| 220 to 222 °C | O=C1NN=C(C2CCC2)C1=Cc1cn(CCCCO)c2ccccc12 [Example 286, 3-Cyclobutyl-4-{[1-(4-hydroxybutyl)indol-3-yl]methylene}-2-pyrazolin-5-one] |
| 237 to 240 °C (dec.) | Cn1cc(C=C2C(=O)NN=C2C2CC2)c2ccc(C(=O)O)cc21 [Example 287, 4-[(6-Carboxy-1-methylindol-3-yl)methylene]-3-cyclopropyl-2-pyrazolin-5-one] |
| 236 to 238 °C | COc1ccc2c(c1)c(C=C1C(=O)NN=C1C1CC1)cn2C [Example 288, 3-Cyclopropyl-4-[(5-methoxy-1-methylindol-3-yl)methylene]-2-pyrazolin-5-one] |
| 263 to 265 °C | Cn1cc(C=C2C(=O)NN=C2c2cnccn2)c2ccccc21 [Example 289, 4-[(1-Methylindol-3-yl)methylene]-3-pyrazinyl-2-pyrazolin-5-one] |
| 258 to 260 °C | Cc1cccc2c(C=C3C(=O)NN=C3C3CC3)cn(C)c12 [Example 290, 3-Cyclopropyl-4-[(1,7-dimethylindol-3-yl)methylene]-2-pyrazolin-5-one] |
| 208 to 210 °C | Cn1cc(C=C2C(=O)NN=C2C2CCOC2)c2ccccc21 (stereo not drawn) [Example 291, 4-[(1-Methylindol-3-yl)methylene]-3-(tetrahydrofuran-3-yl)-2-pyrazolin-5-one] |
| 160 to 164 °C (dec.) | Cn1cc(C=C2C(=O)NN=C2NC2CC2)c2ccccc21 [Example 292, 3-Cyclopropylamino-4-[(1-methylindol-3-yl)methylene]-2-pyrazolin-5-one] |
| 330 to 332 °C | CC(C)OC1=NNC(=O)C1=Cc1cn(C)c2cc(C(=O)O)ccc12 [Example 293, 4-[(6-Carboxy-1-methylindol-3-yl)methylene]-3-isopropoxy-2-pyrazolin-5-one] |
| 245 to 247 °C | Cc1cccc2c(C=C3C(=O)NN=C3OC(C)C)cn(C)c12 [Example 294, 4-[(1,7-Dimethylindol-3-yl)methylene]-3-isopropoxy-2-pyrazolin-5-one] |
| 238 to 239 °C | COc1ccc2c(c1)c(C=C1C(=O)NN=C1OC(C)C)cn2C [Example 295, 3-Isopropoxy-4-[(5-methoxy-1-methylindol-3-yl)methylene]-2-pyrazolin-5-one] |
| 218 to 219 °C | Cn1cc(C=C2C(=O)NN=C2Nc2ccc(F)cc2)c2ccccc21 [Example 296, 3-(4-Fluorophenylamino)-4-[(1-methylindol-3-yl)methylene]-2-pyrazolin-5-one] |
| 252 to 253 °C | Cn1cc(C=C2C(=O)NN=C2NC(=O)C(F)(F)F)c2ccccc21 [Example 297, 4-[(1-Methylindol-3-yl)methylene]-3-trifluoroacetamido-2-pyrazolin-5-one] |
| 192 to 193 °C | Cn1cc(C=C2C(=O)NN=C2CCc2ccc(N)cc2)c2ccccc21 [Example 298, 3-(4-Aminophenylethyl)-4-[(1-methylindol-3-yl)methylene]-2-pyrazolin-5-one] |
| 246 to 247 °C | Cn1cc(C=C2C(=O)NN=C2N)c2ccccc21 [Example 299, 3-Amino-4-[(1-methylindol-3-yl)methylene]-2-pyrazolin-5-one] |
| 271 to 272 °C | O=C1NN=C(CCc2ccc(Cl)cc2)C1=Cc1c[nH]c2ccccc12 [Example 300, 3-(4-Chlorophenylethyl)-4-[(indol-3-yl)methylene]-2-pyrazolin-5-one] |
| 194 to 196 °C | CCOC1=NNC(=O)C1=Cc1cn(C)c2ccccc12 [Example 301, 3-Ethoxy-4-[(1-methylindol-3-yl)methylene]-2-pyrazolin-5-one] |
| 271 to 272 °C | Cn1cc(C=C2C(=O)NN=C2c2ccno2)c2ccccc21 [Example 302, 3-(5-Isoxazolyl)-4-[(1-methylindol-3-yl)methylene]-2-pyrazolin-5-one] |
| 201 to 203 °C | Cn1cc(C=C2C(=O)NN=C2C(C)(C)C)c2ccccc21 [Example 303, 4-[(1-Methylindol-3-yl)methylene]-3-tert-butyl-2-pyrazolin-5-one] |

| melting point | Structure (SMILES) |
| --- | --- |
| > 300 °C | Cn1cc(C=C2C(=O)NN=C2c2cnccn2)c2ccc(C(=O)O)cc21 [Example 304, 4-[(6-Carboxy-1-methylindol-3-yl)methylene]-3-pyrazinyl-2-pyrazolin-5-one] |
| 221 to 223 °C | CC(C)OC1=NNC(=O)C1=Cc1cc2ccccc2[nH]1 [Example 306, 4-[(Indol-2-yl)methylene]-3-isopropoxy-2-pyrazolin-5-one] |
| 242 to 245 °C | O=C1NN=C(CCc2ccc(O)cc2)C1=Cc1cc2ccccc2[nH]1 [Example 307, 3-(4-Hydroxyphenylethyl)-4-[(indol-2-yl)methylene]-2-pyrazolin-5-one] |
| 187 to 189 °C | Nc1ccc(CCC2=NNC(=O)C2=Cc2cc3ccccc3[nH]2)cc1 [Example 308, 3-(4-Aminophenylethyl)-4-[(indol-2-yl)methylene]-2-pyrazolin-5-one] |
| 210 to 212 °C | COC(=O)c1ccc(CCC2=NNC(=O)C2=Cc2cc3ccccc3[nH]2)cc1 [Example 309, 3-(4-Methoxycarbonylphenylethyl]-4-[(indol-2-yl)methylene]-2-pyrazolin-5-one] |
| 263 to 265 °C | NC(=O)c1ccc(CCC2=NNC(=O)C2=Cc2cc3ccccc3[nH]2)cc1 [Example 310, 3-(4-Carbamoylphenylethyl)-4-[(indol-2-yl)methylene]-2-pyrazolin-5-one] |
| 238 to 240 °C | O=C1NN=C(C2CC2)C1=Cc1cc2ccccc2[nH]1 [Example 311, 3-Cyclopropyl-4-[(indol-2-yl)methylene]-2-pyrazolin-5-one] |
| 202 °C (dec.) | CN(C)Cc1c(C=C2C(=O)NN=C2C2CC2)[nH]c2ccccc12 [Example 312, 3-Cyclopropyl-4-[(3-dimethylaminomethylindol-2-yl)methylene]-2-pyrazolin-5-one] |
| 219 to 220 °C | COc1ccc2[nH]c(C=C3C(=O)NN=C3OC(C)C)cc2c1 [Example 314, 3-Isopropoxy-4-[(5-methoxyindol-2-yl)methylene]-2-pyrazolin-5-one] |
| 254 to 255 °C | CC(C)OC1=NNC(=O)C1=Cc1cc2ccccc2n1C [Example 315, 3-Isopropoxy-4-[(1-methylindol-2-yl)methylene]-2-pyrazolin-5-one] |
| 180 to 183 °C | O=C1NN=C(C2CCOC2)C1=Cc1cc2ccccc2[nH]1 (stereo not drawn) [Example 316, 4-[(Indol-2-yl)methylene]-3-(tetrahydrofuran-3-yl)-2-pyrazolin-5-one] |
| 221 to 224 °C | COc1ccc2[nH]c(C=C3C(=O)NN=C3C3CC3)cc2c1 [Example 317, 3-Cyclopropyl-4-[(5-methoxyindol-2-yl)methylene]-2-pyrazolin-5-one] |
| 316 to 320 °C | O=C1NN=C(C2CC2)C1=Cc1cc2cc([N+](=O)[O-])ccc2[nH]1 [Example 318, 3-Cyclopropyl-4-[(5-nitroindol-2-yl)methylene]-2-pyrazolin-5-one] |
| > 300 °C | O=C1NN=C(CCc2ccc(C(=O)O)cc2)C1=Cc1cc2ccccc2[nH]1 [Example 320, 3-(4-Carboxyphenylethyl)-4-[(indol-2-yl)methylene]-2-pyrazolin-5-one] |
| 210 to 211 °C | O=C1NN=C(c2ccccc2)C1=Cc1cc2ccccc2[nH]1 [Example 321, 4-[(Indol-2-yl)methylene]-3-phenyl-2-pyrazolin-5-one] |
| 241 to 243 °C | Cc1c(C=C2C(=O)NN=C2OC(C)C)[nH]c2ccccc12 [Example 322, 3-Isopropoxy-4-[(3-methylindol-2-yl)methylene]-2-pyrazolin-5-one] |
| 205 to 206 °C | COC(=O)C(Cc1c(C=C2C(=O)NN=C2OC(C)C)[nH]c2ccccc12)NC(C)=O (stereo not drawn) [Example 323, 3-Isopropoxy-4-{[3-(2-methoxycarbonyl-2-acetamidoethyl)indol-2-yl]methylene}-2-pyrazolin-5-one] |
| 265 to 267 °C | CCOC1=NNC(=O)C1=Cc1cc2ccccc2[nH]1 [Example 324, 3-Ethoxy-4-[(indol-2-yl)methylene]-2-pyrazolin-5-one] |
| 272 to 274 °C | COc1ccc2[nH]c(C=C3C(=O)NN=C3c3cnccn3)cc2c1 [Example 327, 4-[(5-Methoxyindol-2-yl)methylene]-3-pyrazinyl-2-pyrazolin-5-one] |
| 170 to 172 °C | COc1ccc2[nH]c(C=C3C(=O)NN=C3c3ccccn3)cc2c1 [Example 328, 4-[(5-Methoxyindol-2-yl)methylene]-3-(2-pyridyl)-2-pyrazolin-5-one] |
| 177 to 203 °C | CCOC1=NNC(=O)C1=Cc1cc2c([nH]1)CCC=C2Cl [Example 329, 4-[(4-Chloro-6,7-dihydroindol-2-yl)methylene]-3-ethoxy-2-pyrazolin-5-one] |
| 206 to 209 °C | O=C1NN=C(c2cnccn2)C1=Cc1cc2c([nH]1)CCC=C2Cl [Example 330, 4-[(4-Chloro-6,7-dihydroindol-2-yl)methylene]-3-pyrazinyl-2-pyrazolin-5-one] |
